Assay results taken from US7847127B2, “Process for preparation of atovaquone and novel intermediates thereof” (IPCA Laboratories Limited, priority 2007, dated 2010).

Assay: Stability of the physical form on storage under ambient conditions
Assay type: physicochemical
Settings: stable = remains substantially in the same physical form for at least a month at 20° C./60% RH
Procedure: The term “stable,” as used herein, refers to the tendency to remain substantially in the same physical form for at least a month, preferably at least 6 months, more preferably at least a year, still more preferably at least 2 years, when stored under ambient conditions (20° C./60% RH) without external treatment. Substantially the same physical form in this context means that at least 50%, preferably at least 80% and more preferably at least 90% of the crystalline form remains.

Stability of the crystalline form: stable
Compound: O=C1C(O)=C([C@H]2CC[C@H](c3ccc(Cl)cc3)CC2)C(=O)c2ccccc21 [Form IPCA-ATO, trans-2-[4-(4-chlorophenyl)cyclohexyl]-3-hydroxy-1,4-naphthoquinone]
